# Experiments:
# Assay type in all cases: cell-based
# [1] = system: Bacillus subtilis ATCC 6633; experiment: Broth microdilution MIC, B. subtilis ATCC 6633; conditions: ATCC6633, broth microdilution, 37° C., 20 hours, read-out: MIC B. subtilis ATCC 6633
# Method in brief: (§1)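 Two-fold dilutions from 64 to 0.0625 μg/ml final, 1% DMSO, were inoculated at ~5.0×10^5 cfu/ml in the strain's test medium and kept 20 h at 37 °C in ambient atmosphere. Colonies were grown on MHA, with S. pneumoniae on blood agar under 5% CO2.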
# [2] = system: Escherichia coli ATCC 25922; experiment: Broth microdilution MIC, E. coli ATCC 25922 (MHIIB w & w/o 4 mM EDTA); conditions: broth microdilution, 37° C., 20 hours; for MIC: Escherichia coli, ATCC25922, without EDTA, read-out: MIC E. coli ATCC 25922; for MIC E. coli ATCC 25922 + 4 mM EDTA: with 4 mM EDTA
# Method in brief: as §1
# [3] = system: Streptococcus pneumoniae ATCC 49619; experiment: Broth microdilution MIC, S. pneumoniae ATCC 49619; conditions: ATCC49619, broth microdilution, 37° C., 20 hours, read-out: MIC S. pneumoniae ATCC 49619
# Method in brief: as §1
# [4] = system: Enterococcus faecalis ATCC 29212; experiment: Broth microdilution MIC, E. faecalis ATCC 29212; conditions: ATCC29212, broth microdilution, 37° C., 20 hours, read-out: MIC E. faecalis ATCC 29212
# Method in brief: as §1
# [5] = system: Enterococcus faecium ATCC 700221 (VRE); experiment: Broth microdilution MIC, E. faecium ATCC 700221 (VRE); conditions: Enterococcus faecium; broth microdilution, 37° C., 20 hours; read-out: MIC E. faecium ATCC 700221 (VRE)
# Method in brief: as §1
# [6] = system: Staphylococcus aureus NRS384 (MRSA); experiment: Broth microdilution MIC, S. aureus NRS384 (MRSA); conditions: Staphylococcus aureus; broth microdilution, 37° C., 20 hours; read-out: MIC NRS 384 (MRSA)
# Method in brief: as §1
# [7] = system: Staphylococcus aureus ATCC 29213 (MSSA); experiment: Broth microdilution MIC, S. aureus ATCC 29213 (MSSA); conditions: broth microdilution, 37° C., 20 hours, read-out: MIC S. aureus ATCC 29213 (MSSA)
# Method in brief: as §1
SMILES,MIC [1],MIC [2],MIC E. coli ATCC 25922 + 4 mM EDTA [2],MIC [3],MIC [4],MIC [5],MIC [6],MIC [7]
"CN(CCn1ncc2nc(NCc3ccc(Cl)c(Cl)c3)[nH]c(=O)c21)C(=O)c1cc(O)nnc1Cl [Compound 87, 3-chloro-N-(2-(5-((3,4-dichlorobenzyl)amino)-7-oxo-6,7-dihydro-1H-pyrazolo[4,3-d]pyrimidin-1-yl)ethyl)-6-hydroxy-N-methylpyridazine-4-carboxamide]",64 µg/mL,> 64 µg/mL,>64 µg/mL,8 µg/mL,32 µg/mL,32 µg/mL,> 64 µg/mL,64 µg/mL
"O=c1[nH]c(NCc2ccc(Cl)c(Cl)c2)nc2cnn(C[C@H]3NC[C@H](O)[C@@H](O)[C@@H]3O)c12 [Compound 96, 5-((3,4-Dichlorobenzyl)amino)-1-(((2R,3R,4R,5 S)-3,4,5-trihydroxypiperidin-2-yl)methyl)-1H-pyrazolo[4,3-d]pyrimidin-7(6H)-one]",> 64 µg/mL,> 64 µg/mL,32 µg/mL,64 µg/mL,> 64 µg/mL,64 µg/mL,> 64 µg/mL,> 64 µg/mL
"Cl.O=c1[nH]c(NCc2ccc(Cl)c(Cl)c2)nc2cnn(CCOCCN3CCOCC3)c12 [Compound 160, 5-((3,4-dichlorobenzyl)amino)-1-(2-(2-morpholinoethoxy)ethyl)-1H-pyrazolo[4,3-d]pyrimidin-7(6H)-one hydrochloride]",4 µg/mL,> 64 µg/mL,64 µg/mL,4 µg/mL,16 µg/mL,8 µg/mL,16 µg/mL,16 µg/mL
"COCCOC/C=C/Cn1ncc2nc(NCc3ccc(Cl)c(Cl)c3)[nH]c(=O)c21 [Compound 193, (E)-5-((3,4-dichlorobenzyl)amino)-1-(4-(2-methoxyethoxy)but-2-en-1-yl)-1H-pyrazolo[4,3-d]pyrimidin-7(6H)-one]",1 µg/mL,> 64 µg/mL,>64 µg/mL,4 µg/mL,8 µg/mL,4 µg/mL,4 µg/mL,4 µg/mL
"Cl.Cl.O=c1[nH]c(NCc2ccc(Cl)c(Cl)c2)nc2cnn(C3CCN(Cc4ccncc4)CC3)c12 [Compound 246, 5-((3,4-Dichlorobenzyl)amino)-1-(1-(pyridin-4-ylmethyl)piperidin-4-yl)-1H-pyrazolo[4,3-d]pyrimidin-7(6H)-one dihydrochloride]",1 µg/mL,> 64 µg/mL,>64 µg/mL,4 µg/mL,4 µg/mL,2 µg/mL,2 µg/mL,2 µg/mL

# Other lines, results leading:
MIC [1],MIC [2],MIC E. coli ATCC 25922 + 4 mM EDTA [2],MIC [3],MIC [4],MIC [5],MIC [6],MIC [7],SMILES
4 µg/mL,> 64 µg/mL,>64 µg/mL,16 µg/mL,16 µg/mL,8 µg/mL,8 µg/mL,4 µg/mL,"Cn1nc(C2C=CCO2)c2nc(NCc3ccc(Cl)c(Cl)c3)[nH]c(=O)c21 (stereo not shown) [Compound 46, 5-((3,4-dichlorobenzyl)amino)-3-(2,5-dihydrofuran-2-yl)-1-methyl-1H-pyrazolo[4,3-d]pyrimidin-7(6H)-one]"
4 µg/mL,> 64 µg/mL,64 µg/mL,8 µg/mL,16 µg/mL,8 µg/mL,16 µg/mL,16 µg/mL,"CN1CCCC(c2nc(Cn3ncc4nc(NCc5ccc(Cl)c(Cl)c5)[nH]c(=O)c43)co2)C1.Cl (stereo not shown) [Compound 172, 5-((3,4-dichlorobenzyl)amino)-1-((2-(1-methylpiperidin-3-yl)oxazol-4-yl)methyl)-1H-pyrazolo[4,3-d]pyrimidin-7(6H)-one hydrochloride]"
> 64 µg/mL,> 64 µg/mL,>64 µg/mL,> 64 µg/mL,> 64 µg/mL,> 64 µg/mL,> 64 µg/mL,> 64 µg/mL,"O=C(O)COCCn1ncc2nc(NCc3ccc(Cl)c(Cl)c3)[nH]c(=O)c21 [Compound 283, 2-[2-[5-[(3,4-dichlorophenyl)methylamino]-7-oxo-6H-pyrazolo[4,3-d]pyrimidin-1-yl]ethoxy]acetic acid]"
